Measured values: patent publication US7112598B2, “κ opioid receptor agonist comprising 2-phenylbenzothiazoline derivative” (Santen Pharmaceutical Co., Ltd., priority 2002, dated 2006)
Counter-ions that a name gives are not always drawn.

Key:
human κ opioid receptor = human κ opioid receptor (Homo sapiens, UniProt P41145); assay: κ opioid receptor agonist activity test in GTP binding activity measurement system ([35S]GTPγS binding); type: biochemical; details: test compound concentration 10^−9 M, binding of 10^−6 M (−)-U50488 = 100%, human κ opioid receptor membrane preparation, average of duplicate
Experimental: 1. κ Opioid Receptor Agonist Activity Tests in GTP Binding Activity Measurement System
Jinmin Zhu et al. reported a method of evaluating agonist activities of drugs on a κ opioid receptor wherein guanosine 5′-triphosphate (GTP) radiolabelled with a human κ opioid receptor is used in J. Pharmaco. Exp. Ter., 282, 676–684 (1997). κ opioid receptor agonist activities (actions) of test compounds were evaluated according to the method described in the above-mentioned literature.
N-2-Hydroxyethylpiperazine-N′-2-ethanesulfonic acid (HEPES, 4.77 g), magnesium chloride hexahydrate (2.03 g), sodium chloride (5.84 g), disodium […] (EDTA•2Na, 0.37 g), DL-dithiothreitol (DTT, 0.15 g) and bovine serum albumin (BSA, 1.0 g) were dissolved in ultrapure water, pH was adjusted to 7.4 with sodium hydroxide, and further ultrapure water was added to the mixture so that a total amount was one liter to prepare a incubation buffer.
Nine volume of the incubation buffer was added to one volume of dimethyl sulfoxide (DMSO) to prepare a 10% DMSO-incubation buffer.
Tris(hydroxymethyl)aminomethane hydrochloride (TRIZA-HCl, 66.1 g) and Tris(hydroxymethyl)aminomethane (TRIZA-Base, 9.7 g) were dissolved in ultrapure water so that a total amount was 10 liters to prepare a 50 mM Tris-hydrochloric acid buffer (pH 7.4).
A human κ opioid receptor membrane preparation (100 unit/ml) was diluted 60 times with the incubation buffer under ice-cold to prepare a human κ opioid receptor membrane preparation solution. The membrane preparation solution was preserved under ice-cold.
A test compound was dissolved in 100% DMSO to prepare a 10^−3 M test compound solution, and then the incubation buffer was added to the 10^−3 M test compound solution to prepare a 10^−4 M test compound solution. Next, the 10% dimethyl sulfoxide-incubation buffer was added to the 10^−4 M test compound solution to prepare a 10^−5 M, 10^−6 M, 10^−7 M, 10^−8 M or 10^−9 M test compound solution.
A drug (−)-U50488 (J. Pharmacol. Exp. Ther., 224, 7–12 (1983)), which is known as a κ opioid receptor agonist, was used as a positive control drug in the tests.
(−)-U-50488 was dissolved in 100% DMSO to prepare a 10^−3 M positive control drug solution, and then the incubation buffer was added to the 10^−3 M positive control drug solution to prepare a 10^−4 M positive control drug solution. Next, the 10% DMSO-incubation buffer was added to the 10^−4 M positive control drug solution to prepare a 10^−6 M positive control drug solution.
GDP was dissolved in ultrapure water to prepare a 10^−3 M GDP solution, and the incubation buffer was added to the 10^−3 M GDP solution to prepare a 10^−5 M GDP solution.
10^−3 M [^35S]GTPγS was diluted with the incubation buffer to prepare 10^−9 M radiolabelled reagent.
• 1. The incubation buffer (50 μl), the 10^−5 M GDP solution (50 μl), the human κ opioid receptor membrane preparation solution (300 μl), the test compound solution and the 10^−9 M radiolabelled reagent (50 μl) were put into a glass tube, and then the mixture was incubated at 30° C. for 60 minutes. • 2. The 50 mM Tris-hydrochloric acid buffer (pH 7.4) was added to the mixture to stop the reaction, the reaction mixture was suction-filtered with a GF/B filter, and then the residue on the GF/B filter was washed with the 50 mM Tris-hydrochloric acid buffer (3 ml) three times. • 3. The GF/B filter was air-dried, and then the residue on the GF/B filter was taken out with an antomatic dispenser and transfered into a vial. • 4. Scintisol EX-H (5 ml) was introduced into the vial to prepare a sample solution, and then radioactivity in the sample solution was measured with a liquid scintillation counter for one minute. The radioactivity was expressed in “cpm” (counts per minute). Calculation Formula of κ Opioid Receptor Agonist Activity
Each agonist activity of the test compound on the κ opioid receptor was expressed in [^35S]GTPγS binding % when [^35S]GTPγS binding of 10^−6 M (−)-U50488 was 100%. […]

[1] = tested on: mouse acetic acid writhing; assay: Antinociceptive action test by mouse acetic acid writhing method; type: in vivo; details: 30 mg/kg oral, 20 min before 0.7% acetic acid i.p., writhing counted 10 to 20 minutes after acetic acid, vs vehicle group, average of seven samples; for inhibition in vivo at 30 mg/kg: read-out: Inhibition rate (%)
Experimental: 2. Antinociceptive Action Tests by Mouse Acetic Acid Writhing Method
Accordingly, antinociceptive action tests of test compounds were carried out using the mouse acetic acid writhing method, and analgesic effects of the test compounds were evaluated.
Twenty minutes after oral administration of the test compound (30 mg/kg), the 0.7% acetic acid solution was administered intraperitoneally in a rate of 0.1 ml per 10 g of mouse weight.
Inhibition rates were calculated according to the following equation.
The antinociceptive action of the test compound was expressed in an inhibition rate to writhing numbers of a vehicle group.

human κ opioid receptor, sequence (P41145 whole entry): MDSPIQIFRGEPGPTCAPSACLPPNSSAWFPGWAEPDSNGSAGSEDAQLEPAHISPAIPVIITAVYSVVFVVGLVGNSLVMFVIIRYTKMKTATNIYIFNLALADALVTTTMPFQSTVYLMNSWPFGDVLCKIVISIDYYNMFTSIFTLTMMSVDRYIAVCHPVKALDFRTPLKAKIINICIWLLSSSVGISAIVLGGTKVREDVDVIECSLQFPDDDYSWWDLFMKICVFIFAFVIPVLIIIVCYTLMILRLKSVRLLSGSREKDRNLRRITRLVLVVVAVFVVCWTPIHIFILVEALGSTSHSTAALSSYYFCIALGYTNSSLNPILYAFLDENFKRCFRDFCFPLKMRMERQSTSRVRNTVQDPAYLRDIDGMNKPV

## CCOCCN(CCCOc1ccc(OC)cc1C1Sc2ccccc2N1C(C)=O)C(C)C (single isomer, unassigned; (+)) [Compound No. 11-1, (+)-3-Acetyl-2-[2-(3-(N-(2-ethoxyethyl)-N-isopropylamino)propoxy)-5-methoxyphenyl]benzothiazoline Hydrochloride]
Human κ opioid receptor; read-out: [^35S]GTP γ S binding %
  activation at 0.001 µM: 66.8%
[1]
  inhibition in vivo at 30 mg/kg: 98.3%

## COc1ccc(OCCCN(CCO)C(C)C)c(C2Sc3ccc(Cl)cc3N2C(C)=O)c1 (stereo not drawn) [Compound No. 5-3, 3-Acetyl-5-chloro-2-[2-(3-(N-(2-hydroxyethyl)-N-isopropylamino)-propoxy)-5-methoxyphenyl]benzothiazoline Hydrochloride]
Human κ opioid receptor
  [^35S]GTP γ S binding %: 51.2%
[1]
  Inhibition rate (%): 51.6%

## CCOCCN(CCCOc1ccc(OC)cc1C1Sc2cc(Cl)ccc2N1C(C)=O)C(C)C (stereo not drawn) [Compound No. 3-33, 3-Acetyl-6-chloro-2-[2-(3-(N-(2-ethoxyethyl)-N-isopropylamino)-propoxy)-5-methoxyphenyl]benzothiazoline Hydrochloride]
Human κ opioid receptor; Hydrochloride
  [^35S]GTP γ S binding %: 75.8%
[1]; Hydrochloride, 30 mg/kg
  Inhibition rate (%): 99.5%

## COc1ccc(OCCCN(CCO)C(C)C)c(C2Sc3cc(Cl)ccc3N2C(C)=O)c1 (single isomer, unassigned; (+)) [Compound No. 9-2, (+)-3-Acetyl-6-chloro-2-[2-(3-(N-(2-hydroxyethyl)-N-isopropylamino)-propoxy)-5-methoxyphenyl]benzothiazoline Hydrochloride]
Human κ opioid receptor; Hydrochloride
  [^35S]GTP γ S binding %: 103.9%
[1]; Hydrochloride, 30 mg/kg
  Inhibition rate (%): 81.2%

## COCOCCN(CCCOc1ccc(OC)cc1C1Sc2cc(Cl)ccc2N1C(C)=O)C(C)C (stereo not drawn) [Compound No. 20-1, 3-Acetyl-6-chloro-2-[2-(3-(N-isopropyl-(N-(2-methoxymethyloxy-ethyl))amino)propoxy)-5-methoxyphenyl]benzothiazoline]
Human κ opioid receptor
  [^35S]GTP γ S binding %: 65.1%
[1]
  Inhibition rate (%): 94.8%

## COCCN(CCCOc1ccc(OC)cc1C1Sc2cc(Cl)ccc2N1C(C)=O)C(C)C (stereo not drawn) [Compound No. 3-25, 3-Acetyl-6-chloro-2-[2-(3-(N-isopropyl-N-(2-methoxyethyl)amino)-propoxy)-5-methoxyphenyl]benzothiazoline Hydrochloride]
Human κ opioid receptor
  [^35S]GTP γ S binding %: 67.9%
[1]
  Inhibition rate (%): 91.0%

## COCCN(CCCOc1ccc(OC)cc1C1Sc2cc(Cl)ccc2N1C(C)=O)C(C)C.Cl (single isomer, unassigned; (+)) [Compound No. 9-1, (+)-3-Acetyl-6-chloro-2-[2-(3-(N-isopropyl-N-(2-methoxyethyl)amino)-propoxy)-5-methoxyphenyl]benzothiazoline Hydrochloride]
Human κ opioid receptor; Hydrochloride
  [^35S]GTP γ S binding %: 93.2%
[1]
  inhibition in vivo at 30 mg/kg: 97.7%

## COc1ccc(OCCCN(CCO)C(C)C)c(C2Sc3cc(Cl)ccc3N2C(C)=O)c1 (stereo not drawn) [Compound No. 3-2, 3-Acetyl-6-chloro-2-[2-(3-(N-(2-hydroxyethyl)-N-isopropylamino)-propoxy)-5-methoxyphenyl]benzothiazoline Hydrochloride]
Human κ opioid receptor; Hydrochloride
  [^35S]GTP γ S binding %: 66.5%
[1]; Hydrochloride, 30 mg/kg
  Inhibition rate (%): 76.1%

## COCCOCOCCN(CCCOc1ccc(OC)cc1C1Sc2cc(Cl)ccc2N1C(C)=O)C(C)C (stereo not drawn) [Compound No. 20-2, 3-Acetyl-6-chloro-2-[2-(3-(N-isopropyl-N-(2-(2-methoxyethoxymethoxy)-ethyl)amino)propoxy)-5-methoxyphenyl]benzothiazoline]
Human κ opioid receptor
  [^35S]GTP γ S binding %: 50.5%
[1]
  Inhibition rate (%): 81.7%
